Experimental data: PMC6806261, “Modified Peptide YY Molecule Attenuates the Activity of NPY/AgRP Neurons and Reduces Food Intake in Male Mice” (Endocrinology, 2019)
Where no end group is shown, it is not given here.

Experiments:
[1] = tested on: Agrp-cre::hM3Dq-mCherry mice; assay: DREADD (hM3Dq/CNO)-stimulated feeding; format: in vivo, mouse
Procedure: For surgery, mice (8 to 12 weeks) were anesthetized with isoflurane (1 L/min O2 with 2% isoflurane). Following surgery, all mice received 0.03 mg/kg buprenorphine (Buprenex, Reckitt Benckiser, Slough, UK) and were allowed a minimum of 1 week to recover before treatment started. DIO mice received subcutaneous implants of an Alzet 2002 osmotic minipump (Durect, Cupertino, CA). All of the DIO mice experienced a small reduction in body weight following implantation of the minipump. For experiments using designer receptors exclusively activated by designer drugs (DREADDs), AgRP-cre mice received bilateral injections of AAV2-hSyn-DIO-hM3Dq-mCherry (UNC Vector Core, Chapel Hill, NC) ([35]) into the arcuate nucleus (3 × 23 nL per side), using the following coordinates relative to Bregma, according to Paxinos and Franklin ([36]): anterior, −1.5 mm; lateral, ±0.30 mm; and ventral, −6.2 mm. Subsequently, the DREADDs were activated by IP injection of the designer drug, clozapine N-oxide (CNO; Sigma-Aldrich, St. Louis, MO) at 1 mg/kg.

[2] = tested on: mice; assay: Normal nighttime feeding after SC injection; format: in vivo, mouse; settings: serial dilution, food intake after 2 hours
Procedure: (§1) For acute experiments, mice were acclimated to handling for 2 weeks and housed singly with free access to food at least 4 days before experiments. Nighttime injections of NNC0165-1273 were given subcutaneously (SC) 30 minutes before start of “dark phase,” and food intake was measured 1, 2, 4, and 14 hours later. Daytime feeding experiments commenced 4 hours into the “light phase” [Zeitgeber time (ZT) 4]; injections of ghrelin (2 mg/kg, IP) and NNC0165-1273/PYY3-36 (various doses, SC) were given concomitantly, and food intake measured at 1, 2, 4, and 24 hours later.

[3] = target: human Y1 receptor; settings: ref [9] Østergaard et al., read-out: binding inhibitory constant (Ki), Y1 receptor; cited from earlier work
Description: (§2) PYY3-36 and ghrelin were purchased from Bachem (Bubendorf, Switzerland). NNC0165-1273 was identified from a series of modified PYY peptides and synthesized with the aim of increased selectivity for Y2 receptors vs the other Y receptors [peptide no. 29 in Østergaard et al. ([9])].

[4] = target: human Y2 receptor; settings: same binding assays for both peptides, ref [9] Østergaard et al., read-out: binding inhibitory constant (Ki), Y2 receptor; cited from earlier work
Description: as §2

[5] = target: human Y5 receptor; settings: ref [9] Østergaard et al., read-out: binding inhibitory constant (Ki), Y5 receptor; cited from earlier work
Description: as §2

[6] = cited from earlier work
Description: as §2

[7] = target: human Y4 receptor; settings: ref [9] Østergaard et al., read-out: binding inhibitory constant (Ki), Y4 receptor; cited from earlier work
Description: as §2

[8] = tested on: NPY/AgRP neurons; assay: cFos immunohistochemistry in arcuate NPY/AgRP neurons; format: in vivo, mouse
Procedure: Mice were transcardially perfused with chilled 0.9% NaCl followed by 4% paraformaldehyde in 0.1M phosphate buffer (Sigma-Aldrich). Whole brains were postfixed overnight and then dehydrated in 30% sucrose solution. Brains were flash frozen on dry ice, and then 30 µm sections were collected using a freezing sledge microtome and transferred to 0.1M phosphate buffer.
For chromogenic visualization of cFos, free-floating sections were incubated sequentially in rabbit anit-cFos primary [1:1000; SC-52; Santa Cruz, Dallas, TX ([37])], biotinylated goat anit-rabbit secondary [1:500; BA-1000; Vector Laboratories, Cambridge, UK ([38])], and streptavidin-biotin-peroxidase complex (1:500; RPN1051; GE Healthcare, Chicago, IL). This was combined with fluorescence staining for GFP or mCherry reporters; this required coincubation of sections with chicken anit-GFP [1:1000; 13970; Abcam, Cambridge, UK ([39])] followed by donkey anit-chicken^ALEXA 488 [1:1000; 703-545-155, Jackson ImmunoResearch, West Grove, PA ([40])], or with rabbit anti-DsRed [1:1000, 632396, Clontech, CA ([41])] followed by donkey […]^ALEXA 594 [1:1000; 705-585-147; Jackson ImmunoResearch, ([42])]. Sections were mounted on slides before imaging on an Olympus BX51 upright microscope. Images were processed and analyzed using open-source FIJI software.

[9] = tested on: arcuate NPY/AgRP neurons (Npy-hrGFP); assay: Current clamp patch electrophysiology in brain slices; format: cell-based, mouse; settings: 50 nM bath application; results not shown
Procedure: Npy-hrGFP mice were euthanized by decapitation, and the brains rapidly removed and sliced on a vibratome (Campden Instruments, Loughborough, UK) in ice-cold oxygenated incubation artificial cerebrospinal fluid (aCSF) containing (mM): 95 NaCl, 1.8 KCl, 1.2 KH2PO4, 7 MgSO4, 26 NaHCO3, 0.5 CaCl2, 15 glucose, and 50 sucrose. Slices were perfused with room temperature recording aCSF containing (mM): 127 NaCl, 1.8 KCl, 1.2 KH2PO4, 1.3 MgSO4, 26 NaHCO3, 2.4 CaCl2, and 5 glucose. Npy-hrGFP neurons were visualized in 250-µm slices using an Olympus BX51 with inbuilt infrared video-enhanced differential interference contrast optics and GFP fluorescence optics. Neurons were patched using 7 to 10 MΩ pipettes containing (mM): 130 K-gluconate, 10 KCl, 2 MgCl2, 10 HEPES, 0.5 EGTA, 2 K2ATP, and 0.5 NaGTP. Data were recorded on an Axoclamp 2A amplifier in bridge mode (Molecular Devices, San Jose, CA) and a CED 1401 A/D data acquisition interface (CED, Cambridge, UK) to give current clamp data at 30 kHz sampling frequency. NNC0165-1273 (Novo Nordisk, Maaloev, Denmark) was diluted in aCSF to a concentration of 50 nM and applied to perfusion chamber through a gravity-driven system. Effects were sampled with no current manipulations. All applications were timed for 3 to 5 minutes and perfusion flow was maintained at standard 1 to 2 mL/min^−1.

[10] = tested on: mice; assay: Ghrelin-induced daytime feeding; format: in vivo, mouse; settings: 2 mg/kg IP, light phase, fed mice
Procedure: as §1

Q: What does the source list for `C[N+]1([O-])CCN(C2=Nc3cc(Cl)ccc3Nc3ccccc32)CC1` [CNO, clozapine N-oxide]?
A: food intake in Agrp-cre::hM3Dq-mCherry mice ([1]; single IP injection 1 mg/kg, vs saline): substantial increase in food intake; food intake in wild-type mice ([1]; wild-type mice, results not shown): do not respond

Q: Which results are given for “PYY3-36: truncated major circulating form of gut hormone peptide YY; purchased from Bachem”?
A: threshold dose needed to inhibit nighttime feeding [2]: 0.04 µmol/kg; Ki [3]: 40 nM; Ki [4]: 0.4 nM; Ki [5]: 3.2 nM; half-life in pig plasma [6]: 3.33 h; Ki [7]: 13 nM; ghrelin-induced activation (cFos) of NPY/Agrp neurons ([8]; pretreatment before ghrelin 2 mg/kg, perfused 90 minutes after ghrelin, Npy-hrGFP mice): blocked

Q: What does the source list for “ghrelin: orexigenic peptide purchased from Bachem, used to induce feeding and activate NPY/AgRP neurons (GSSFLSPEHQRVQQRKESKKPPAKLQPR; ends and bridges not checked; UniProt Q9UBU3 24-51, looked up)”?
A: resting membrane potential of NPY/AgRP neurons [9]: increase in the resting membrane potential; cFos expression in the arcuate nucleus, notably NPY-hrGFP neurons ([8]; ghrelin 2 mg/kg, 90 minutes after injection): substantial increase; food intake after ghrelin alone [10]: substantial increase in food intake
